# Assay results from patent US5178662A, “Benzaldehyde acetal compounds, preparation process thereof, and herbicidal compositions containing the same as active ingredients” (Mitsui Toatsu Chemicals, Inc., priority 1990, dated 1993).
# Tests used:
# [1] = test system: Barnyardgrass (Echinochloa crusgalli); assay: Upland foliar application test, barnyardgrass; format: in vivo; details: Echinochloa crus-galli, 960 h; foliar application at stage of 2-3 leaves, 50 g ai/a, emulsion, 40th day after spray; read-out: Herbicidal effects Barnyardgrass (Echinochloa crusgalli)
# Description: (§1) Resin-made 1/1000-are pots were filled with the soil of an upland field. After they were fertilized, cotton and soybean were seeded and 3 cm soil covering was applied. Five days later, amaranth, common lambsquarters, barnyardgrass, green foxtail, large crabgrass and johnsongrass were seeded and 1 cm soil covering was applied. They were allowed to grow in a green house. When each plant grew to the stage of 2-3 leaves, an emulsion formulated from a predetermined amount of each test compound in a similar manner to the procedures described in Formulation Example 11 was diluted with water and then sprayed at a predetermined application rate by means of a pressure-operated sprayer. The application rate was controlled at 5 l per are. Influence to the crops and weeds were observed on the 40th day after the spray of the herbicides. The results are shown in Table 4 in which the degree of damages of each test plant and the degree of injury to each crop are shown in a similar manner to Test 2.
# Soybean (Glycine max) [2] = assay: Upland soil application test, crop injury soybean; format: in vivo; details: soil application one day after seeding, 50 g ai/a, wettable powder, fresh weight on 50th day after spray
# Description: (§2) Resin-made 1/1000-are pots were filled with the soil of an upland field. After they were fertilized, cotton and soybean were seeded and 3 cm soil covering was applied. In addition, amaranth, common lambs-quarters, barnyardgrass, green foxtail, large crabgrass and johnsongrass were seeded and 1 cm soil covering was applied. One day later, a wettable powder prepared from a predetermined amount of each test compound in a similar manner to the procedures described in Formulation Example 1 was diluted with water and then sprayed evenly at an application rate equal to 10 l per are onto the surface of the soil by means of a pressure-operated sprayer. The weeds and crops were allowed to grow in a green house and influence to them were observed on the 50th day after the spray. The degree of damages of each test plant and the degree of injury to each crop were determined by measuring fresh weight in each group and indicated by % calculated according to the following formula. [formula]
# [3] = test system: Foxtail (Setaria viridis); assay: Upland foliar application test, green foxtail; format: in vivo; details: 960 h, foliar application at stage of 2-3 leaves, 50 g ai/a, emulsion, 40th day after spray, read-out: Herbicidal effects Foxtail (Setaria viridis)
# Description: as §2, §1
# [4] = test system: Cotton (Gossypium indicum); assay: Upland soil application test, crop injury cotton; format: in vivo; details: soil application one day after seeding, 50 g ai/a, wettable powder, fresh weight on 50th day after spray
# Description: as §2
# Johnsongrass [5] = assay: Upland soil application test, johnsongrass; format: in vivo; details: Sorghum halepense, 1200 h; soil application one day after seeding, 50 g ai/a, wettable powder, fresh weight on 50th day after spray; read-out: Herbicidal effects Johnsongrass
# Description: as §2
# Soybean (Glycine max) [6] = assay: Upland foliar application test, crop injury soybean; format: in vivo; details: foliar application at stage of 2-3 leaves, 50 g ai/a, emulsion, 40th day after spray
# Description: as §1
# [7] = test system: Crabgrass (Digitaria adscendens); assay: Upland soil application test, large crabgrass; format: in vivo; details: 1200 h, soil application one day after seeding, 50 g ai/a, wettable powder, fresh weight on 50th day after spray, read-out: Herbicidal effects Crabgrass (Digitaria adscendens)
# Description: as §2
# [8] = test system: Amaranth (Amaranthus viridis); assay: Upland soil application test, amaranth; format: in vivo; details: 1200 h, soil application one day after seeding, 50 g ai/a, wettable powder, fresh weight on 50th day after spray, read-out: Herbicidal effects Amaranth (Amaranthus viridis)
# Description: as §2
# Johnsongrass [9] = assay: Upland foliar application test, johnsongrass; format: in vivo; details: Sorghum halepense, 960 h; foliar application at stage of 2-3 leaves, 50 g ai/a, emulsion, 40th day after spray; read-out: Herbicidal effects Johnsongrass
# Description: as §1
# [10] = test system: ALS (acetolactate syntase) from pea seedlings; assay: ALS (acetolactate syntase) inhibition test, pea enzyme; format: biochemical; details: 10,000 ppm (0.5 μg/0.5 ml) of compound; 1 hour at 30° C.; absorbance at 525 nm
# Description: (§3) To determine the selectivity in enzyme level between crops and weeds, an ALS inhibition test was conducted using pea as a typical broadleaf crop and barnyardgrass as a representative gramineous weeds.
# (§4) After seeds of pea and barnyardgrass were allowed to germinate at 25° C. for 8-14 days in a dark place, partially-purified suspensions (Suspensions A) of acetolactate syntase were separately obtained from the seedlings in accordance with the procedures described in the literature, Plant Physiology, 75, 827-831. In a test tube, 0.5 mg of one of test compounds was weighed, followed by the addition of 0.15 ml of a 20 mM K2 HPO4 solution and 0.25 ml of a reaction substrate medium which consisted of 40 mM of K2 HPO4, 40 mM of sodium pyruvate, 1 mM of TPP, 1 mM of MgCl2 and 20 μM of FAD so that 0.4 ml of a reaction solution (Solution B) was prepared. Added to 0.4 ml of Solution B was 0.1 ml of Suspension A. After the resultant mixture was shaken for 1 hour in a thermostat water bath controlled at 30° C., 50 μl of 6N sulfuric acid were added to terminate the reaction.
# (§5) Next, the test tube with the reaction-terminated liquid mixture contained therein was transferred into a thermostat water bath controlled at 60° C. and was heated for 15 minutes. Thereafter, 0.5 ml of a 0.5% creatine solution and 0.5 ml of a 5% alkaline α-naphthol solution were added, and the resultant mixture was maintained at 60° C. for 15 minutes. As a result, the test solution developed a pink-to-red color. After the above operation, the absorbance of the test solution at 525 nm was measured by a spectrophotometer (Absorbance 1 of Test Compound).
# (§6) Further, the absorbance (Absorbance 2 of Blank) of a solution obtained by subjecting a portion of Solution B to the above procedures without addition of any test compound and the absorbance (Absorbance 3 of sulfuric acid) of another solution obtained by subjecting another portion of Solution B to the above procedures which using 50 μl of 6N sulfuric acid as a test compound were also measured.
# common lambsquarters [11] = assay: Upland soil application test, common lambsquarters; format: in vivo; details: Chenopodium album, 1200 h; soil application one day after seeding, 50 g ai/a, wettable powder, fresh weight on 50th day after spray; read-out: Herbicidal effects Common lambquarters
# Description: as §2
# [12] = test system: Foxtail (Setaria viridis); assay: Upland soil application test, green foxtail; format: in vivo; details: 1200 h, soil application one day after seeding, 50 g ai/a, wettable powder, fresh weight on 50th day after spray, read-out: Herbicidal effects Foxtail (Setaria viridis)
# Description: as §2
# [13] = test system: Amaranth (Amaranthus viridis); assay: Upland foliar application test, amaranth; format: in vivo; details: 960 h, foliar application at stage of 2-3 leaves, 50 g ai/a, emulsion, 40th day after spray, read-out: Herbicidal effects Amaranth (Amaranthus viridis)
# Description: as §2, §1
# [14] = test system: Cotton (Gossypium indicum); assay: Upland foliar application test, crop injury cotton; format: in vivo; details: foliar application at stage of 2-3 leaves, 50 g ai/a, emulsion, 40th day after spray
# Description: as §2, §1
# common lambsquarters [15] = assay: Upland foliar application test, common lambsquarters; format: in vivo; details: Chenopodium album, 960 h; foliar application at stage of 2-3 leaves, 50 g ai/a, emulsion, 40th day after spray; read-out: Herbicidal effects Common lambquarters
# Description: as §1
# [16] = test system: johnsongrass emerging from rhizome; assay: Application test on johnsongrass emerging from rhizome; format: in vivo; details: foliar application at stage of 4-5 leaves, application rate of active ingredient 20 (unit not given), emulsion, 50th day after spray
# Description: as §2
# Resin-made 1/1000-are pots were filled with the soil of an upland field. After they were fertilized, rhizome of johnsongrass were transplanted to the pots and 3 cm soil covering was applied. They were allowed to grow in a green house. When each johnsongrass grew to the stage of 4-5 leaves, an emulsion formulated from a predetermined amount of each test compound in a similar manner to the procedures described in Formulation Example 11 was diluted with water and then sprayed at a predetermined application rate by means of a pressure-operated sprayer. The application rate was controlled at 5 l per are. The effect of each compound against the johnsongrass emerging from its rhizome was observed on the 50th day after the spray of the herbicides. The results are shown in Table 5 in which the herbicidal effect against johnsongrass is shown in a similar manner to Test 2.
# [17] = test system: ALS (acetolactate syntase) from barnyardgrass seedlings; assay: ALS (acetolactate syntase) inhibition test, barnyardgrass enzyme; format: biochemical; details: 10,000 ppm (0.5 μg/0.5 ml) of compound; 1 hour at 30° C.; absorbance at 525 nm
# Description: as §3, §4, §5, §6
# [18] = test system: Barnyardgrass (Echinochloa crusgalli); assay: Upland soil application test, barnyardgrass; format: in vivo; details: Echinochloa crus-galli, 1200 h; soil application one day after seeding, 50 g ai/a, wettable powder, fresh weight on 50th day after spray; read-out: Herbicidal effects Barnyardgrass (Echinochloa crusgalli)
# Description: as §2
# [19] = test system: Crabgrass (Digitaria adscendens); assay: Upland foliar application test, large crabgrass; format: in vivo; details: 960 h, foliar application at stage of 2-3 leaves, 50 g ai/a, emulsion, 40th day after spray, read-out: Herbicidal effects Crabgrass (Digitaria adscendens)
# Description: as §2, §1
structure (smiles),measurement,setting,value
"CCCCCCOC(OCCCCCC)c1ccccc1Oc1nc(OC)cc(OC)n1 [Compound No. 5, 2-(4,6-dimethoxypyrimidin-2-yloxy)benzaldehyde di-n-hexylacetal]",pest or weed control at 5000 g/ha,[1],100%
same,Crop injury Soybean (Glycine max),Soybean (Glycine max) [2],0%
same,pest or weed control at 5000 g/ha,[3],100%
same,Crop injury Cotton (Gossypium indicum),[4],0%
same,pest or weed control at 5000 g/ha,Johnsongrass [5],100%
same,Crop injury Soybean (Glycine max),Soybean (Glycine max) [6],0%
same,pest or weed control at 5000 g/ha,[7],100%
same,pest or weed control at 5000 g/ha,[8],100%
same,pest or weed control at 5000 g/ha,Johnsongrass [9],100%
same,Enzymoreaction inhibition rate (%) Pea,[10],0%
same,pest or weed control at 5000 g/ha,common lambsquarters [11],100%
same,pest or weed control at 5000 g/ha,[12],100%
same,pest or weed control at 5000 g/ha,[13],100%
same,Crop injury Cotton (Gossypium indicum),[14],0%
same,pest or weed control at 5000 g/ha,common lambsquarters [15],100%
same,Herbicidal effect against johnsongrass emerging from rhizome,[16],100%
same,Enzymoreaction inhibition rate (%) Barnyardgrass,[17],100%
same,pest or weed control at 5000 g/ha,[18],100%
same,pest or weed control at 5000 g/ha,[19],100%
"CCCCCCCCOC(OCCCCCCCC)c1ccccc1Oc1nc(OC)cc(OC)n1 [Compound No. 7, 2-(4,6-dimethoxypyrimidin-2-yloxy)benzaldehyde di-n-octylacetal]",pest or weed control at 5000 g/ha,[1],95%
same,Crop injury Soybean (Glycine max),Soybean (Glycine max) [2],0%
same,pest or weed control at 5000 g/ha,[3],90%
same,Crop injury Cotton (Gossypium indicum),[4],0%
same,pest or weed control at 5000 g/ha,Johnsongrass [5],100%
same,Crop injury Soybean (Glycine max),Soybean (Glycine max) [6],0%
same,pest or weed control at 5000 g/ha,[7],80%
same,pest or weed control at 5000 g/ha,[8],80%
same,pest or weed control at 5000 g/ha,Johnsongrass [9],100%
same,Enzymoreaction inhibition rate (%) Pea,[10],0%
same,pest or weed control at 5000 g/ha,common lambsquarters [11],85%
same,pest or weed control at 5000 g/ha,[12],90%
same,pest or weed control at 5000 g/ha,[13],90%
same,Crop injury Cotton (Gossypium indicum),[14],0%
same,pest or weed control at 5000 g/ha,common lambsquarters [15],85%
same,Herbicidal effect against johnsongrass emerging from rhizome,[16],80%
same,Enzymoreaction inhibition rate (%) Barnyardgrass,[17],100%
same,pest or weed control at 5000 g/ha,[18],85%
same,pest or weed control at 5000 g/ha,[19],90%
CCCCCOC(OCCCCC)c1ccccc1Oc1nc(OC)cc(OC)n1 [Compound No. 4],pest or weed control at 5000 g/ha,[1],100%
same,Crop injury Soybean (Glycine max),Soybean (Glycine max) [2],0%
same,pest or weed control at 5000 g/ha,[3],100%
same,Crop injury Cotton (Gossypium indicum),[4],0%
same,pest or weed control at 5000 g/ha,Johnsongrass [5],100%
same,Crop injury Soybean (Glycine max),Soybean (Glycine max) [6],0%
same,pest or weed control at 5000 g/ha,[7],100%
same,pest or weed control at 5000 g/ha,[8],100%
same,pest or weed control at 5000 g/ha,Johnsongrass [9],100%
same,Enzymoreaction inhibition rate (%) Pea,[10],0%
same,pest or weed control at 5000 g/ha,common lambsquarters [11],100%
same,pest or weed control at 5000 g/ha,[12],100%
same,pest or weed control at 5000 g/ha,[13],100%
same,Crop injury Cotton (Gossypium indicum),[14],0%
same,pest or weed control at 5000 g/ha,common lambsquarters [15],100%
same,Herbicidal effect against johnsongrass emerging from rhizome,[16],100%
same,Enzymoreaction inhibition rate (%) Barnyardgrass,[17],100%
same,pest or weed control at 5000 g/ha,[18],100%
same,pest or weed control at 5000 g/ha,[19],100%
